Test results: patent publication US5952307A, “Basic α-aminoalkylphosphonate derivatives” (priority 1997, dated 1999)
Where two headings read alike, the source gives them in different places.

Experiments:
Format in all cases: biochemical
mast cell tryptase = mast cell tryptase (Homo sapiens, UniProt Q15661); test: Inactivation rate of mast cell tryptase, incubation method; conditions: for kobs /[I] mast cell tryptase: 25° C., NI = no inhibition; for kobsd /[I] mast cell tryptase: Table I, 0.1M Hepes, 10% glycerol, 10 mM heparin, pH 7.5, 25° C., 7.1% DMSO, NI = no inhibition after 25 min of incubation
Chain of mast cell tryptase (Q15661 31-275): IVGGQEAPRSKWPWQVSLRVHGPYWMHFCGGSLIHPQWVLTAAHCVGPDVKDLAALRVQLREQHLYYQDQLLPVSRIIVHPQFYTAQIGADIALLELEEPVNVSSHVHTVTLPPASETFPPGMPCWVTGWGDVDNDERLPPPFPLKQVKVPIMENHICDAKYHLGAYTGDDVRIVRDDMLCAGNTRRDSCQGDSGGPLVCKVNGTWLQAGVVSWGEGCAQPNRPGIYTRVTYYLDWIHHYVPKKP
Summary of the method: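 Incubation method at 25 °C: 0.07 μM tryptase with 20–66 μM inhibitor in Hepes pH 7.5 containing heparin, glycerol and DMSO. Aliquots were withdrawn at intervals for residual activity on Z-Arg-SBzl or Z-Lys-SBzl with DTNB. Pseudo-first-order kobs came from ln(vt/v0) versus time.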

human thrombin = molecular target: T1, human thrombin (Homo sapiens, UniProt P00734); conditions: 25° C., NI = no inhibition
T1 construct: bovine trypsin, human thrombin
Summary of the method: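 Irreversible inactivation followed by incubation method at 25 °C: 0.07 μM thrombin with 0.25–42 μM inhibitor in 80 mM Hepes pH 7.5, 428 mM NaCl, 8% DMSO. Residual activity of withdrawn aliquots measured with thioester or 4-nitroanilide substrates; kobs from pseudo-first-order fits.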

plasmin = molecular target: T2, plasmin (Homo sapiens, UniProt P00747); test: Inactivation rate of plasmin, incubation method; conditions: Table III; for kobs /[I] plasmin: enzyme 0.06-0.5 μM, inhibitor 0.25-42 μM, 9% DMSO, 25° C., NI = no inhibition
T2 construct: factor Xa, plasmin, and urokinase
T2 sequence (P00747 581-810 limits assumed, species assumed): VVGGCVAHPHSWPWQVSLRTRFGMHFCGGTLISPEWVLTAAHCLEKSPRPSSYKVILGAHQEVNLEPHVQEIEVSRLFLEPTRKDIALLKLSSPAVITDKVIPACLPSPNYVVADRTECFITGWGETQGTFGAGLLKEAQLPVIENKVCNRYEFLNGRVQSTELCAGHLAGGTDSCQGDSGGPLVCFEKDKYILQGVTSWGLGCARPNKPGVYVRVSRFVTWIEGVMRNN
T2 sequence (P00747 97-580 partner limits assumed, species assumed): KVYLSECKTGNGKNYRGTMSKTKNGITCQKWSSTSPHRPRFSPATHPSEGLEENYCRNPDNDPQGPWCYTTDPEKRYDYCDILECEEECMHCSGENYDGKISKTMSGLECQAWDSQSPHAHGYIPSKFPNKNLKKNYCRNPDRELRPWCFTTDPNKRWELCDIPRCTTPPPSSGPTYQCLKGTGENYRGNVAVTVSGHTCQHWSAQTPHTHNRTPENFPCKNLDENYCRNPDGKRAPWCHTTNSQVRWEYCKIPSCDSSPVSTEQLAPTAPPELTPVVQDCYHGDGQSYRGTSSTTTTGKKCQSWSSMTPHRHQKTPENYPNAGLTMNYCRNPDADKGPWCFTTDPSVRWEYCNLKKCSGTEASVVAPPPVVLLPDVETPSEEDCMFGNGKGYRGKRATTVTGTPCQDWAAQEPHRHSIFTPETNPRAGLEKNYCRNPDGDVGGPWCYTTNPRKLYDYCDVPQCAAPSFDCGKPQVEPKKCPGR
Experimental: (§1) Inactivation rates of serine proteases by aryl diesters of peptidyl derivatives of α-aminoalkylphosphonates were measured by the incubation method. An aliquot of inhibitor (25 or 50 μl) in Me2 SO was added to a buffered enzyme solution (0.01-2.3 μM) to initiate the inactivation. Aliquots (50 μl) were withdrawn at various intervals and the residual enzymatic activity was measured. Me2 SO concentration in the reaction mixture was 8-12% (v/v). A 0.1 M HEPES, 0.01 M CaCl2, pH 7.5 buffer was utilized for trypsin and trypsin-like enzymes. A 0.1 M HEPES, 0.5 M NaCl, pH 7.5, was utilized for the other serine proteases. Peptide thioesters or peptide nitroanilides with the appropriate sequences were used as substrates for various serine proteases. All peptide thioesters hydrolysis rates were measured with the assay mixture containing 4,4'-dithiodipyridine {ε324 =19800 M^-1 cm^-1; Grasetti & Murray, Arch. Biochem. Biophys. 1967, 119, 41-48}. Peptide 4-nitroanilide hydrolysis was measured at 410 nm {ε410 =8800 M^-1 cm^-1; Erlanger et al., Arch. Biochem. Biophys. 1961, 95, 271-278}. First order inactivation rate constants (Kobs) were obtained from plots of In vt /vo vs time, and the correlation coefficients were greater then 0.98.
(§2) ^a Enzyme (0.06-0.5 μM) was incubated with the inhibitor (0.25-42
(§3) μM) in 250 μL of the proper buffer containing 9% DMSO at 25°
(§4) C. The final inhibition reaction mixtures are given in the footnote to
(§5) Table 1. Aliquots of 25 μL were withdrawn at various intervals and the
(§6) residual enzymatic activity was measured as described in experimental
(§7) section. The kobs values were calculated from pseudofirst-order
^b Inhibitor concentration of 0.24 mM.

urokinase = urokinase (Homo sapiens, UniProt P00749); test: Inactivation rate of urokinase, incubation method; conditions: Table III; enzyme 0.06-0.5 μM, inhibitor 0.25-42 μM, 9% DMSO, 25° C.; NI = no inhibition
Experimental: as §1, §2, §3, §4, §5, §6, §7

bovine trypsin [1] = molecular target: T3, bovine trypsin (Bos taurus, UniProt P00760); test: Inactivation rate of bovine trypsin, incubation method; conditions: Table III; enzyme 0.06-0.5 μM, inhibitor 0.25-42 μM, 9% DMSO, 25° C.; NI = no inhibition
T3 sequence (P00760 24-246): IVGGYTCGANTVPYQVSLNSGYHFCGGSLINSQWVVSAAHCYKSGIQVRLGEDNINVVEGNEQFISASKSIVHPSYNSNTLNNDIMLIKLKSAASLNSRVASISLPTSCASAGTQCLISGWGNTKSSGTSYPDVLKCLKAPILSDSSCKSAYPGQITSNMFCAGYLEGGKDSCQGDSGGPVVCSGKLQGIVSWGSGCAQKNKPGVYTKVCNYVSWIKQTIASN

human granzyme A = molecular target: T4, human granzyme A (Homo sapiens, UniProt P12544); test: Inactivation rate of human granzyme A, incubation method; conditions: Table I; 0.1M Hepes, 0.01M CaCl2 pH 7.5, 25° C., 7.6% DMSO, substrate Z--Arg--SBzl
T4 sequence (P12544 29-262): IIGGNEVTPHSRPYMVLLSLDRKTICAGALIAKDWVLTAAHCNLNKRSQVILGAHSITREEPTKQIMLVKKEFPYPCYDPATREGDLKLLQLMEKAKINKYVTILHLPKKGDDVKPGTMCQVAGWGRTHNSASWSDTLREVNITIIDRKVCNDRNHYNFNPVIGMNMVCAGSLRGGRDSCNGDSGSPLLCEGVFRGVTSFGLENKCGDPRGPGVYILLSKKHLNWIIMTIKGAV
Summary of the method: (§8)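 Inhibitor in DMSO added to enzyme (0.01-2.3 μM) in 0.1 M HEPES, 0.01 M CaCl2, pH 7.5, 25° C (DMSO 7.6% for granzyme A, 7.1% for granzyme K); residual activity on Z-Arg-SBzl with DTNB read at intervals. Kobs from ln vt/vo vs time plots.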

rat granzyme A = test: Inactivation rate of rat granzyme A, incubation method; conditions: Table I; 0.1M Hepes, 0.01M CaCl2 pH 7.5, 25° C., 7.6% DMSO, substrate Z--Arg--SBzl
Experimental: as §1
^a Inhibition constants were measured in 0.1M Hepes, 0.01M CaCl2
pH 7.5 for trypsin, granzymes A, and K, and in 0.1M Hepes, 10% glycerol,
10 mM heparin, pH 7.5 for mast cell tryptase, and at 25° C. The
reaction mixtures contained 2% DMSO for trypsin, 7.6% for granzyme A, and
7.1% for granzyme K and tryptase. The substrate was Z--Arg--SBzl for
granzymes and trypsin, and Z--Arg--SBzl or Z--Lys--SBzl for tryptase in
the presence of DTNB. The inhibitor # concentration ranged from 0.001 to
^b NI, no inhibition after 25 min of incubation with enzyme.

rat granzyme K = molecular target: T5, rat granzyme K (Rattus norvegicus, UniProt P49864); test: Inactivation rate of rat granzyme K, incubation method; conditions: Table I; 0.1M Hepes, 0.01M CaCl2 pH 7.5, 25° C., 7.1% DMSO, substrate Z--Arg--SBzl; NI = no inhibition after 25 min of incubation
T5 sequence (P49864 26-258): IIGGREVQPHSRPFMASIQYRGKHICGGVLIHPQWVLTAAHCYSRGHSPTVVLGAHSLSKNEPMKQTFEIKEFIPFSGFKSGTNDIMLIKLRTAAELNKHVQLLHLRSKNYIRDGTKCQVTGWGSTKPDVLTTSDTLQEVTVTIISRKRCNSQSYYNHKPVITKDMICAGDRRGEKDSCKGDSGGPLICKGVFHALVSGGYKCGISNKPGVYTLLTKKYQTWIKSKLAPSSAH
Summary of the method: as §8

bovine trypsin [2] = molecular target: T3, bovine trypsin; test: Inactivation rate of bovine trypsin, incubation method; conditions: for kobsd /[I] bovine trypsin: Table I, 0.1M Hepes, 0.01M CaCl2 pH 7.5, 25° C., 2% DMSO, substrate Z--Arg--SBzl, NI = no inhibition after 25 min; for kobs /[I] bovine trypsin: Table II, 0.13 μM trypsin, 0.25-42 μM inhibitor, 80 mM Hepes pH 7.5, 1 mM CaCl2, 8% DMSO, 25° C., NI = no inhibition
Summary of the method: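 Incubation method: trypsin pre-incubated with inhibitor (0.25-42 μM) at 25° C in 80 mM Hepes, 1 mM CaCl2, pH 7.5, 8% DMSO; aliquots withdrawn over time for residual activity on Z-Arg-SBzl thioester with DTNB or 4,4'-dithiodipyridine. Pseudo-first-order kobs from ln vt/vo versus time.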

[3] = Table III, enzyme 0.06-0.5 μM, inhibitor 0.25-42 μM, 9% DMSO
[4] = Table II, 0.07 μM tryptase, 20-66 μM inhibitor, Hepes pH 7.5, heparin, 9% glycerol, 8% DMSO
[5] = Table II, 0.07 μM thrombin, 0.25-42 μM inhibitor, 80 mM Hepes pH 7.5, 428 mM NaCl, 8% DMSO

| Compound | kobs /[I] mast cell tryptase (mast cell tryptase; [3]) | kobs /[I] human thrombin (human thrombin; [3]) | kobs /[I] plasmin (plasmin) [M⁻¹ s⁻¹] | kobs /[I] urokinase (urokinase) [M⁻¹ s⁻¹] | kobs /[I] bovine trypsin (bovine trypsin [1]) | % Inh plasmin (plasmin; inhibitor concentration of 0.24 mM) [%] | kobsd /[I] human granzyme A (human granzyme A) [M⁻¹ s⁻¹] | kobsd /[I] rat granzyme A (rat granzyme A) [M⁻¹ s⁻¹] | kobsd /[I] rat granzyme K (rat granzyme K) [M⁻¹ s⁻¹] | kobsd /[I] mast cell tryptase (mast cell tryptase) [M⁻¹ s⁻¹] | kobs /[I] mast cell tryptase (mast cell tryptase; [4]) [M⁻¹ s⁻¹] | kobsd /[I] bovine trypsin (bovine trypsin [2]) [M⁻¹ s⁻¹] | kobs /[I] bovine trypsin (bovine trypsin [2]) | kobs /[I] human thrombin (human thrombin; [5]) |
| --- | --- | --- | --- | --- | --- | --- | --- | --- | --- | --- | --- | --- | --- | --- |
| Cl.NCCCCC(NC(=O)OCc1ccccc1)P(=O)(Oc1ccccc1)Oc1ccccc1 (stereo not drawn) [Cbz--Lys^P (OPh)2, Diphenyl N-(N-Benzyloxycarbonyl)amino(4-aminobutyl)methanephosphonate Hydrochloride] | 17 ± 1 M⁻¹ s⁻¹ | 17 M⁻¹ s⁻¹ | 8.2 ± 0.4 | 15 ± 2 | 6,235 M^-1 s^-1 | – | – | – | – | – | – | – | – | – |
| NCCCCCC(NC(=O)[C@@H]1CCCN1C(=O)CC(c1ccccc1)c1ccccc1)P(=O)(Oc1ccccc1)Oc1ccccc1 (stereo partly drawn) [3,3-Diphenylpropanoyl-Pro-HomoLys^P (OPh)2] | 1.1 ± 0.0 M⁻¹ s⁻¹ | 224 ± 8 M⁻¹ s⁻¹ | – | 2.1 ± 0.2 | 16 ± 1 M⁻¹ s⁻¹ | 50 | – | – | – | – | – | – | – | – |
| NCCCCCC(NC(=O)C1CCCN1C(=O)C(N)Cc1ccccc1)P(=O)(Oc1ccccc1)Oc1ccccc1 (mixture of isomers) [D--Phe--Pro-HomoLys^P (OPh)2] | 4.1 0.2 M^-1 s^-1 | 1,342 ± 272 M^-1 s^-1 | – | 7.8 ± 0.0 | 164 ± 14 M⁻¹ s⁻¹ | – | – | – | – | – | – | – | – | – |
| CC(C)(C)OC(=O)NC(Cc1ccccc1)C(=O)N1CCCC1C(=O)NC(CCCCN)P(=O)(Oc1ccccc1)Oc1ccccc1 (mixture of isomers) [Boc--D--Phe--Pro--Lys^P (OPh)2] | 68 ± 4 M⁻¹ s⁻¹ | 9,364 ± 110 M^-1 s^-1 | 51 ± 4 | 38 ± 3 | 28,840 ± 1,800 M^-1 s^-1 | – | – | – | – | – | – | – | – | – |
| Cl.NCCCCCC(NC(=O)[C@@H]1CCCN1C(=O)c1cccc(Oc2ccccc2)c1)P(=O)(Oc1ccccc1)Oc1ccccc1 (stereo partly drawn) [3-Phenoxybenzoyl-Pro-HomoLys^P (OPh)2, Diphenyl 1-(N-(3-Phenoxybenzoylprolyl)amino)-6-aminohexanephosphonate Hydrochloride] | 10 ± 3 M⁻¹ s⁻¹ | 27 ± 5 M⁻¹ s⁻¹ | 4.6 ± 0.1 | 22 ± 1 | 116 ± 34 M⁻¹ s⁻¹ | – | – | – | – | – | – | – | – | – |
| Diphenyl N-(N-Benzyloxycarbonyl)amino(6-aminohexyl)methanephosphonate [Cbz-HomoLys^P (OPh)2] | 0.7 M⁻¹ s⁻¹ | – | – | 1.0 ± 0.0 | 21 ± 6 M⁻¹ s⁻¹ | – | – | – | – | – | – | – | – | – |
| NCCCCC(NC(=O)C1CCCN1C(=O)CNS(=O)(=O)Cc1ccccc1)P(=O)(Oc1ccccc1)Oc1ccccc1 (mixture of isomers) [PhCH2 SO2 --Gly--Pro--Lys^P (OPh)2] | 24 ± 0 M⁻¹ s⁻¹ | 649 ± 14 M⁻¹ s⁻¹ | 13 ± 1 | 39 ± 2 | 12,472 ± 1,400 M^-1 s^-1 | – | – | – | – | – | – | – | – | – |
| CC(O)C(NC(=O)OCc1ccccc1)C(=O)NC(CCCCN)P(=O)(Oc1ccccc1)Oc1ccccc1 (mixture of isomers) [Cbz--Thr--Lys^P (OPh)2] | 7 ± 1 M⁻¹ s⁻¹ | – | – | 0.7 ± 0.1 | 230 M⁻¹ s⁻¹ | – | – | – | – | – | – | – | – | – |
| CC(NC(=O)OCc1ccccc1)C(=O)NC(C)C(=O)NC(C)C(=O)NC(c1ccc(C(=N)N)cc1)P(=O)(Oc1ccccc1)Oc1ccccc1 (mixture of isomers) [Cbz--Ala--Ala--Ala-(4-AmPhGly)^P (OPh)2] | – | – | – | – | – | – | 730 ± 15 | 590 ± 17 | 7 | 2 | 2.0 ± 0.2 | 1780 ± 33 | 1,780 ± 33 M^-1 s^-1 | 1,290 ± 26 M^-1 s^-1 |
| Cl.N=C(N)c1ccc(C(NC(=O)C=Cc2cccs2)P(=O)(Oc2ccccc2)Oc2ccccc2)cc1 (stereo not drawn) [Diphenyl N-(3-(2-Thienyl)acryloyl)amino(4-amidinophenyl)methanephosphonate Hydrochloride] | – | – | – | – | – | – | 740 ± 18 | 430 ± 31 | 4 | 1 | 1 | 300 ± 22 | 300 ± 22 M⁻¹ s⁻¹ | 90 ± 4 M⁻¹ s⁻¹ |
